Laboratory results: ChEMBL document CHEMBL1201862, “PubChem BioAssay data set” (2004)
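48-hour exposure; five concentrations; linearly interpolated endpoints. GI50 marks 50% less growth.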 Active and inactive are the calls of the source. Rule as the data show it: active = GI50 up to about 1.1 µM and inactive = higher.

Assays:
Test in all cases: NCI anticancer screen, dose series, 48 h
ACHN = system: ACHN
CAKI-1 = system: CAKI-1
HCC 2998 = system: HCC 2998
HCT-15 = system: HCT-15
HL-60 = system: HL-60
HOP-92 = system: HOP-92
KM12 = system: KM12
LOX IMVI = system: LOX IMVI
M14 = system: M14
MOLT-4 = system: MOLT-4
NCI-H23 = system: NCI-H23
NCI-H460 = system: NCI-H460
OVCAR-3 = system: OVCAR-3
OVCAR-4 = system: OVCAR-4
OVCAR-5 = system: OVCAR-5
OVCAR-8 = system: OVCAR-8
RPMI-8226 = system: RPMI-8226
RXF 393 = system: RXF 393
SR = system: SR
T47D = system: T47D

Compound | GI50 (ACHN) | GI50 (CAKI-1) | GI50 (HCC 2998) | GI50 (HCT-15) [µM] | GI50 (HL-60) | GI50 (HOP-92) | GI50 (KM12) | GI50 (LOX IMVI) | GI50 (M14) | GI50 (MOLT-4) | GI50 (NCI-H23) | GI50 (NCI-H460) | GI50 (OVCAR-3) | GI50 (OVCAR-4) | GI50 (OVCAR-5) | GI50 (OVCAR-8) | GI50 (RPMI-8226) | GI50 (RXF 393) | GI50 (SR) | GI50 (T47D)
Cc1c2cnccc2c(C)c2c1c1ccccc1n2CCOC(=O)c1ccccc1 | 4.74 µM (inactive) | 6.24 µM (inactive) | 10.7 µM (inactive) | 11.9 | 5.85 µM (inactive) | 27.7 µM (inactive) | 12.5 µM (inactive) | 8.38 µM (inactive) | 26.7 µM (inactive) | 5.25 µM (inactive) | 15.7 µM (inactive) | 3.45 µM (inactive) | 12.2 µM (inactive) | 16.5 µM (inactive) | 14.4 µM (inactive) | 6.55 µM (inactive) | 8.57 µM (inactive) | 9.75 µM (inactive) | 17.5 µM (inactive) | 30 µM (inactive)
NC1=NCC(CN2CCOCC2)O1 (stereo not given) | > 100 µM (inactive) | > 100 µM (inactive) | > 100 µM (inactive) | > 100 | > 100 µM (inactive) | > 100 µM (inactive) | > 100 µM (inactive) | > 100 µM (inactive) | > 100 µM (inactive) | > 100 µM (inactive) | > 100 µM (inactive) | > 100 µM (inactive) | > 100 µM (inactive) | > 100 µM (inactive) | > 100 µM (inactive) | > 100 µM (inactive) | > 100 µM (inactive) | > 100 µM (inactive) | > 100 µM (inactive) | > 100 µM (inactive)
CC(=O)Oc1ccc2c(-c3ccccc3)c(Oc3ccc(Cl)cc3)c(=O)oc2c1 | 16.9 µM (inactive) | 18.3 µM (inactive) | 7.55 µM (inactive) | 3.16 | 42.3 µM (inactive) | 10.4 µM (inactive) | 14.4 µM (inactive) | 20.6 µM (inactive) | 19.8 µM (inactive) | 18.1 µM (inactive) | 18.7 µM (inactive) | 14.7 µM (inactive) | 14.5 µM (inactive) | 15.2 µM (inactive) | 17.9 µM (inactive) | 18.5 µM (inactive) | 47.1 µM (inactive) | 18 µM (inactive) | 28.8 µM (inactive) | 6.21 µM (inactive)
CNC(=S)N/N=C(\C)c1ccc(OC)cc1O | > 100 µM (inactive) | > 100 µM (inactive) | > 100 µM (inactive) | 16 | 0.841 µM (active) | > 100 µM (inactive) | > 100 µM (inactive) | > 100 µM (inactive) | > 100 µM (inactive) | 3.33 µM (inactive) | > 100 µM (inactive) | > 100 µM (inactive) | > 100 µM (inactive) | 28.1 µM (inactive) | > 100 µM (inactive) | > 100 µM (inactive) | > 32 µM (inactive) | > 100 µM (inactive) | 29.3 µM (inactive) | > 100 µM (inactive)
CN(C)c1ccc(/C=C2\C[C@H]3[C@@H]4CC=C5C[C@@H](N6CCCC6)CC[C@]5(C)[C@H]4CC[C@]3(C)[C@H]2O)cc1 | 0.873 µM (active) | 1.16 µM (inactive) | 0.91 µM (active) | 1.57 | 1.15 µM (inactive) | 2.47 µM (inactive) | 2.24 µM (inactive) | 0.787 µM (active) | 0.773 µM (active) | 1.82 µM (inactive) | 3.66 µM (inactive) | 1.48 µM (inactive) | 1.15 µM (inactive) | 0.796 µM (active) | 3.99 µM (inactive) | 0.769 µM (active) | 0.973 µM (active) | 0.966 µM (active) | 0.773 µM (active) | 0.998 µM (active)
CCC(=O)OCOc1ccc(/C=C2\CCC(CN(C)C)C2=O)cc1 (stereo not given) | 7.73 µM (inactive) | 4.67 µM (inactive) | 5.96 µM (inactive) | 3.13 | 1.36 µM (inactive) | 11 µM (inactive) | 3.9 µM (inactive) | 1.94 µM (inactive) | 3.42 µM (inactive) | 2.51 µM (inactive) | 5.42 µM (inactive) | 15.9 µM (inactive) | 3.7 µM (inactive) | 4.09 µM (inactive) | 16.8 µM (inactive) | 4.19 µM (inactive) | 2.43 µM (inactive) | 3.44 µM (inactive) | 2.15 µM (inactive) | 3.52 µM (inactive)
O=C1N/C(=N\N=C\c2ccccc2)C2(CCCCC2)O1 | > 100 µM (inactive) | 84.9 µM (inactive) | 87.3 µM (inactive) | 46.9 | 32.9 µM (inactive) | > 100 µM (inactive) | > 100 µM (inactive) | 56.5 µM (inactive) | > 100 µM (inactive) | 39.3 µM (inactive) | > 100 µM (inactive) | 45 µM (inactive) | 44.9 µM (inactive) | > 100 µM (inactive) | > 100 µM (inactive) | 99.5 µM (inactive) | 53.5 µM (inactive) | > 100 µM (inactive) | 16.3 µM (inactive) | > 100 µM (inactive)
